Values of other authors, collected in patent publication US20050113573A1, “Nitroso compounds to treat ischemia” (priority 2003, published 2005).

Assays:
platelet adhesion = conditions: pigs
neointimal proliferation = conditions: rat
[1] = system: ischemically injured livers; conditions: severe ischemia/reperfusion
cerebral infarcts = conditions: versus vehicle treated animals
rabbit iliac arteries = rabbit iliac arteries after balloon angioplasty
[2] = 700 stable coronary patients, treated before the angioplasty
[3] = system: smooth muscle cell proliferation; conditions: pigs
femoral arteries = conditions: hypercholesterolemic mice, prolonged treatment
[4] = system: intimal proliferation and platelet deposition; conditions: rabbits, local administration, after vascular arterial balloon injury

With `N=c1c[n+](N2CCOCC2)[n-]o1` [3-morpholino-sydnonimine] as the compound, how does the “effect on platelet adhesion” value (platelet adhesion) read?
Its value is “antiadhesive effects”.

For `CC(C(=O)OCCCCO[N+](=O)[O-])c1ccc(-c2ccccc2)c(F)c1` (stereo not shown) [HCT-1026], which neointimal proliferation (neointimal proliferation) is on record?
The neointimal proliferation was “reduction in the neointimal proliferation”.

And the nitrite/nitrate plasma levels (neointimal proliferation)?
Its nitrite/nitrate plasma levels is “increase in nitrite/nitrate plasma levels”.

What does the source list for `N=C(N)NCCC[C@H](N)C(=O)O` [L-arginine]?
liver function, neutrophil infiltration and animal survival after liver ischemia/reperfusion injury [1]: beneficial for the liver after severe ischemia/reperfusion; cerebral infarcts (cerebral infarcts): smaller cerebral infarcts than those in vehicle treated animals; neointimal area (rabbit iliac arteries): significant reduction of the neointimal area

Which clinical outcome [2] does the source give for `CCOC(=O)[N-]c1cn(N2CCOCC2)n[o+]1` [molsidomine] here?
Its clinical outcome is “no effect on the clinical outcome”.

And the long-term angiographic result [2]?
Its long-term angiographic result is “modest improvement in the long-term angiographic result”.

And the “smooth muscle cell proliferation following balloon angioplasty” value [3]?
Its value is “inhibits smooth muscle cell proliferation following balloon angioplasty”.

And the neointimal area (rabbit iliac arteries)?
The neointimal area was “significant reduction of the neointimal area”.

For `CC(=O)Oc1ccccc1C(=O)Oc1cccc(CO[N+](=O)[O-])c1` [nitric oxide releasing aspirin], which “vascular inflammation and apoptosis during vascular remodeling” value (femoral arteries) is on record?
The value was “reduced the vascular inflammation and promoted apoptosis”.

For “S-nitroso-bovine serum albumin: protein adduct of nitric oxide, locally delivered”, which “intimal proliferation and platelet deposition” value [4] is on record?
The value was “inhibited intimal proliferation and platelet deposition”.

For “poly thiolated form of bovine serum albumin: poly thiolated form of bovine serum albumin modified to include several S-nitrosothiol groups”, which “intimal proliferation and platelet deposition” value [4] is on record?
Its value is “inhibited intimal proliferation and platelet deposition”.
